Legend:
[1] = molecular target: T1, von Hippel-Lindau disease tumor suppressor/SWI/SNF-related matrix-associated actin-dependent regulator of chromatin subfamily A member 2 (Homo sapiens, UniProt P51531+P40337); experiment: PROTAC activity at VHL/SMARCA2 in human RKO cells assessed as induction of SMARCA2 degradation by measuring maximal efficacy incubated for 18 hrs by Western blotting analysis relative to control; type: cell-based
Target sequence in this assay (P40337 whole entry, looked up): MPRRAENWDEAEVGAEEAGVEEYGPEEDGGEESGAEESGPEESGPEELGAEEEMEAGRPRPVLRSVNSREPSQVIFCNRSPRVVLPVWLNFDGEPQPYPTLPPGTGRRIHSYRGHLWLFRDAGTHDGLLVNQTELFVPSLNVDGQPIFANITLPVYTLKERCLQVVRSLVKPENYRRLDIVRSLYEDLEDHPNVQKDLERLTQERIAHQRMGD
Target sequence in this assay (P51531 whole entry, looked up): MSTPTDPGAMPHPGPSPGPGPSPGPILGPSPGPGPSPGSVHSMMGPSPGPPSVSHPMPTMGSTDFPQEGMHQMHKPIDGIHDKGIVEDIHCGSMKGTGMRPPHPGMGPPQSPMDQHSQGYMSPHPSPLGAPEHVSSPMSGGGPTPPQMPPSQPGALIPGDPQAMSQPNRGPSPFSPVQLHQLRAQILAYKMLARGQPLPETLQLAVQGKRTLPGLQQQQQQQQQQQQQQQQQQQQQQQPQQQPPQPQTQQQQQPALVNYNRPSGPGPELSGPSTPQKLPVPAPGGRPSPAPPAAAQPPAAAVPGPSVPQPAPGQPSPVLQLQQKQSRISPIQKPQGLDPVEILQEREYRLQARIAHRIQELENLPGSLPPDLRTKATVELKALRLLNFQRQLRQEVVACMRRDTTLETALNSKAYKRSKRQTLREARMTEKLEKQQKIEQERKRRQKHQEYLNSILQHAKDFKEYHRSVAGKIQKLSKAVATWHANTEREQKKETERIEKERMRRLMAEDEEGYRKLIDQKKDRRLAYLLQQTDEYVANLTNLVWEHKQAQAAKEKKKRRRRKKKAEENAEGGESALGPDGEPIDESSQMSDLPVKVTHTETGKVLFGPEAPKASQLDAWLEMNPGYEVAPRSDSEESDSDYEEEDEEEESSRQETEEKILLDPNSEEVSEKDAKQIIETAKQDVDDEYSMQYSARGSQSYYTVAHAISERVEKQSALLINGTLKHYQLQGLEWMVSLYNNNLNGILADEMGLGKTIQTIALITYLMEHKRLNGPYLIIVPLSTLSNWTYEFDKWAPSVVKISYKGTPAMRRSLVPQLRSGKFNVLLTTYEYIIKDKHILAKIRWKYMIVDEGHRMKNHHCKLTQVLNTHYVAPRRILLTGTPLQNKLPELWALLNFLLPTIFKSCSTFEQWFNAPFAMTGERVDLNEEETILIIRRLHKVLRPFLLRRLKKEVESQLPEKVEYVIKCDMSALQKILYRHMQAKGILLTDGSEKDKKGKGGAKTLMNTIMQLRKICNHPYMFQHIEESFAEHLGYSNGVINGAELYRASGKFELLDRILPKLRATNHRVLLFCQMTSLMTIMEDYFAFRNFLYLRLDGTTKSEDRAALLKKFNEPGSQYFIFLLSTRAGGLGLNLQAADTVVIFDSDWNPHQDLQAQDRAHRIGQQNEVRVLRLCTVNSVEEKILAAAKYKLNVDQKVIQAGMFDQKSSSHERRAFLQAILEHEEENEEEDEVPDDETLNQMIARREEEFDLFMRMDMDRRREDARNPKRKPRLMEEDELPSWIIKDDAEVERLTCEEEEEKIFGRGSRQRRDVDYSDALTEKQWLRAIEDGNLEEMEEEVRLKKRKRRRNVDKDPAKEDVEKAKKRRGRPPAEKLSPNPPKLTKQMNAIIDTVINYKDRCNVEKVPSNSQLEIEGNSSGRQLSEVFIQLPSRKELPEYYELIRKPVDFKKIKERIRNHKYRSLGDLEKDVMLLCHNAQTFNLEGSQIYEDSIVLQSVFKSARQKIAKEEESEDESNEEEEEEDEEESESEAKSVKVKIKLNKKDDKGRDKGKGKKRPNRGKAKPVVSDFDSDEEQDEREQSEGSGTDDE

NCI-H647 [2] = experiment: Antiproliferative activity against human NCI-H647 cells expressing wild-type SMARCA2 assessed as cell growth inhibition measured after 7 days by WST-8 assay; type: functional; conditions: NCI-H647, 168 h, time 7 day
[3] = molecular target: T1, von Hippel-Lindau disease tumor suppressor/SWI/SNF-related matrix-associated actin-dependent regulator of chromatin subfamily A member 2; experiment: PROTAC activity at VHL/C-terminal HiBiT fused SMARCA2 in human HeLa cells assessed as induction of SMARCA2 degradation by measuring maximal efficacy incubated for 24 hrs by Nano-Glo HiBiT analysis relative to control; type: cell-based
Target sequence in this assay (P40337 whole entry, looked up): as the sequence (P40337 whole entry, looked up) above
Target sequence in this assay (P51531 whole entry, looked up): as the sequence (P51531 whole entry, looked up) above

NCI-H647 [4] = experiment: Antiproliferative activity against human NCI-H647 cells expressing wild-type SMARCA2 assessed as cell growth inhibition by measuring maximal efficacy measured after 7 days by WST-8 assay relative to control; type: functional; conditions: time 7 day
[5] = molecular target: T2, von Hippel-Lindau disease tumor suppressor/SWI/SNF-related matrix-associated actin-dependent regulator of chromatin subfamily A member 4 (Homo sapiens, UniProt P51532+P40337); experiment: PROTAC activity at VHL/SMARCA4 in human RKO cells assessed as induction of […] degradation by measuring maximal efficacy incubated for 18 hrs by Western blotting analysis relative to control; type: cell-based
Target sequence in this assay (P40337 whole entry, looked up, the tested form may be a part): as the sequence (P40337 whole entry, looked up) above
Target sequence in this assay (P51532 whole entry, looked up, the tested form may be a part): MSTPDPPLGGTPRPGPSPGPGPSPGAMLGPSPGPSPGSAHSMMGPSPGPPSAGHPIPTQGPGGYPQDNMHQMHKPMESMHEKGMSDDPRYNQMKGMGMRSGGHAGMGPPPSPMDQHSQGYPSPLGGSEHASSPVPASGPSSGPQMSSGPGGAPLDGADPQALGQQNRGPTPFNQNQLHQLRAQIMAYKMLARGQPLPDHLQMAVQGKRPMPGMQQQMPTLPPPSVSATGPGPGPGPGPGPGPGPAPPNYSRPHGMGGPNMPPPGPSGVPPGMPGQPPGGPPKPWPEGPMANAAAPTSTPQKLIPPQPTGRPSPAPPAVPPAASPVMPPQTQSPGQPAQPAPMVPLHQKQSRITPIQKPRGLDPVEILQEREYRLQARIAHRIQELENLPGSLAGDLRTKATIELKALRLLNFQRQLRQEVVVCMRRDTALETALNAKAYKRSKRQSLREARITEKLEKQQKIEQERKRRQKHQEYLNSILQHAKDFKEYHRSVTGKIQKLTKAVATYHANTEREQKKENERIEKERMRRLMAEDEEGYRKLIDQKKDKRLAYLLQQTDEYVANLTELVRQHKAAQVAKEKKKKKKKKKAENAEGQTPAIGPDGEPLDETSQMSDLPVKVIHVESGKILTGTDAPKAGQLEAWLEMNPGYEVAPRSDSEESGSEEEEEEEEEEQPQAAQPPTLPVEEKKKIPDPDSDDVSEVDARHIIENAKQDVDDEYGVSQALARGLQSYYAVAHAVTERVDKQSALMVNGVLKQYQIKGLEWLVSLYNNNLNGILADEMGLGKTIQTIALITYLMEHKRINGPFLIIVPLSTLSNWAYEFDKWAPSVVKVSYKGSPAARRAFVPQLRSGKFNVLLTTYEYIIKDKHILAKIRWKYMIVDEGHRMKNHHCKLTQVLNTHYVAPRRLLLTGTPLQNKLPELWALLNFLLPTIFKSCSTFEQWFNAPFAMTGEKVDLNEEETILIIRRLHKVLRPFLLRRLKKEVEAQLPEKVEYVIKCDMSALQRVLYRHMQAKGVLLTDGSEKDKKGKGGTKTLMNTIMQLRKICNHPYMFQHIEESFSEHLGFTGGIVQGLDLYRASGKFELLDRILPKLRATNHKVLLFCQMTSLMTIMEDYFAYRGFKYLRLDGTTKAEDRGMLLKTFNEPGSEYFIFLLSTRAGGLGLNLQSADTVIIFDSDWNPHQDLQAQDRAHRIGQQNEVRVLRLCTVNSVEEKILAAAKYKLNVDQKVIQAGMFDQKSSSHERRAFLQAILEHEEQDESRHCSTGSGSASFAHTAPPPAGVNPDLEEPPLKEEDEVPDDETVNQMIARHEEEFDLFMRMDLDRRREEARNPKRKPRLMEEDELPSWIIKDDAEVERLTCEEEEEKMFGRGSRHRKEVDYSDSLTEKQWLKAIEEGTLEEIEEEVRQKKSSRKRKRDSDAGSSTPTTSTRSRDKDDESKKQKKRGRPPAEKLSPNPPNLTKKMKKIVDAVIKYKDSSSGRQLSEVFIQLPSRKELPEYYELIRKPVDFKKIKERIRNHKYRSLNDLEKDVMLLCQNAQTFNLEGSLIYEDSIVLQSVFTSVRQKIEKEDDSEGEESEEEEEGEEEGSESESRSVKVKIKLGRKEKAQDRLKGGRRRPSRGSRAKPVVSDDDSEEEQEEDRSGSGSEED

[6] = molecular target: T1, von Hippel-Lindau disease tumor suppressor/SWI/SNF-related matrix-associated actin-dependent regulator of chromatin subfamily A member 2; experiment: PROTAC activity at VHL/C-terminal HiBiT fused SMARCA2 in human HeLa cells assessed as induction of SMARCA2 degradation at 0.000001 to 1 uM by Nano-Glo HiBiT analysis; type: cell-based; conditions: dose lower 1e-06 µM, dose upper 1.0 µM, time 6-48 hrs, TDE = time-dependent effect
Target sequence in this assay (P40337 whole entry, looked up): as the sequence (P40337 whole entry, looked up) above
Target sequence in this assay (P51531 whole entry, looked up): as the sequence (P51531 whole entry, looked up) above

NCI-H1793 [7] = experiment: Antiproliferative activity against SMARCA4-deficient human NCI-H1793 cells assessed as cell growth inhibition by measuring maximal efficacy measured after 7 days by WST-8 assay relative to control; type: functional; conditions: time 7 day
NCI-H1975 [8] = experiment: Antiproliferative activity against human NCI-H1975 cells expressing wild-type SMARCA2 assessed as cell growth inhibition measured after 7 days by WST-8 assay; type: functional; conditions: NCI-H1975, 168 h, time 7 day
[9] = molecular target: T2, von Hippel-Lindau disease tumor suppressor/SWI/SNF-related matrix-associated actin-dependent regulator of chromatin subfamily A member 4; experiment: PROTAC activity at VHL/C-terminal HiBiT fused SMARCA4 in human HeLa cells assessed as induction of SMARCA4 degradation incubated for 24 hrs by Nano-Glo HiBiT analysis; type: cell-based
[10] = molecular target: T1, von Hippel-Lindau disease tumor suppressor/SWI/SNF-related matrix-associated actin-dependent regulator of chromatin subfamily A member 2; experiment: PROTAC activity at VHL/SMARCA2 in human RKO cells assessed as induction of SMARCA2 degradation incubated for 18 hrs by Western blotting analysis; type: cell-based
A549 [11] = experiment: Antiproliferative activity against SMARCA4-deficient human A549 cells assessed as cell growth inhibition measured after 7 days by WST-8 assay; type: functional; conditions: A549, 168 h, time 7 day
SK-MEL-28 [12] = experiment: Antiproliferative activity against human SK-MEL-28 cells expressing wild-type SMARCA2 assessed as cell growth inhibition by measuring maximal efficacy measured after 7 days by WST-8 assay relative to control; type: functional; conditions: time 7 day
[13] = Antiproliferative activity against SMARCA4-deficient human NCI-H1568 cells assessed as cell growth inhibition by measuring maximal efficacy measured after 7 days by WST-8 assay relative to control; type: functional; conditions: time 7 day
NCI-H1792 [14] = experiment: Antiproliferative activity against human NCI-H1792 cells expressing wild-type SMARCA2 assessed as cell growth inhibition measured after 7 days by WST-8 assay; type: functional; conditions: NCI-H1792, 168 h, time 7 day
NCI-H1975 [15] = experiment: Antiproliferative activity against human NCI-H1975 cells expressing wild-type SMARCA2 assessed as cell growth inhibition by measuring maximal efficacy measured after 7 days by WST-8 assay relative to control; type: functional; conditions: time 7 day
[16] = molecular target: T2, von Hippel-Lindau disease tumor suppressor/SWI/SNF-related matrix-associated actin-dependent regulator of chromatin subfamily A member 4; experiment: PROTAC activity at VHL/C-terminal HiBiT fused SMARCA4 in human HeLa cells assessed as induction of SMARCA4 degradation at 0.00001 to 1 uM by Nano-Glo HiBiT analysis; type: cell-based; conditions: dose lower 1e-05 µM, dose upper 1.0 µM, time 6-48 hrs, TDE = time-dependent effect
Target sequence in this assay (P40337 whole entry, looked up, the tested form may be a part): as the sequence (P40337 whole entry, looked up) above
Target sequence in this assay (P51532 whole entry, looked up, the tested form may be a part): as the sequence (P51532 whole entry, looked up, the tested form may be a part) above

SK-MEL-5 [17] = experiment: Antiproliferative activity against SMARCA4-deficient human SK-MEL-5 cells assessed as cell growth inhibition by measuring maximal efficacy measured after 7 days by WST-8 assay relative to control; type: functional; conditions: time 7 day
[18] = Antiproliferative activity against SMARCA4-deficient human NCI-H1568 cells assessed as cell growth inhibition measured after 7 days by WST-8 assay; type: functional; conditions: NCI-H1568, 168 h, time 7 day
NCI-H1299 [19] = experiment: Antiproliferative activity against SMARCA4-deficient human NCI-H1299 cells assessed as cell growth inhibition measured after 7 days by WST-8 assay; type: functional; conditions: NCI-H1299, 168 h, time 7 day
NCI-H1793 [20] = experiment: Antiproliferative activity against SMARCA4-deficient human NCI-H1793 cells assessed as cell growth inhibition measured after 7 days by WST-8 assay; type: functional; conditions: NCI-H1793, 168 h, time 7 day
NCI-H1693 [21] = experiment: Antiproliferative activity against SMARCA4-deficient human NCI-H1693 cells assessed as cell growth inhibition measured after 7 days by WST-8 assay; type: functional; conditions: NCI-H1693, 168 h, time 7 day
NCI-H1299 [22] = experiment: Antiproliferative activity against SMARCA4-deficient human NCI-H1299 cells assessed as cell growth inhibition by measuring maximal efficacy measured after 7 days by WST-8 assay relative to control; type: functional; conditions: time 7 day
NCI-H1693 [23] = experiment: Antiproliferative activity against SMARCA4-deficient human NCI-H1693 cells assessed as cell growth inhibition by measuring maximal efficacy measured after 7 days by WST-8 assay relative to control; type: functional; conditions: time 7 day
[24] = molecular target: T2, von Hippel-Lindau disease tumor suppressor/SWI/SNF-related matrix-associated actin-dependent regulator of chromatin subfamily A member 4; experiment: PROTAC activity at VHL/SMARCA4 in human RKO cells assessed as induction of […] degradation incubated for 18 hrs by Western blotting analysis; type: cell-based
[25] = molecular target: T1, von Hippel-Lindau disease tumor suppressor/SWI/SNF-related matrix-associated actin-dependent regulator of chromatin subfamily A member 2; experiment: PROTAC activity at VHL/C-terminal HiBiT fused SMARCA2 in human HeLa cells assessed as induction of SMARCA2 degradation incubated for 6 to 48 hrs by Nano-Glo HiBiT analysis; type: cell-based; conditions: dose lower 1e-06 µM, dose upper 1.0 µM, time 6-48 hrs
Target sequence in this assay (P40337 whole entry, looked up): as the sequence (P40337 whole entry, looked up) above
Target sequence in this assay (P51531 whole entry, looked up): as the sequence (P51531 whole entry, looked up) above

SK-MEL-5 [26] = experiment: Antiproliferative activity against SMARCA4-deficient human SK-MEL-5 cells assessed as cell growth inhibition measured after 7 days by WST-8 assay; type: functional; conditions: SK-MEL-5, 168 h, time 7 day
NCI-H838 [27] = experiment: Antiproliferative activity against SMARCA4-deficient human NCI-H838 cells assessed as cell growth inhibition by measuring maximal efficacy measured after 7 days by WST-8 assay relative to control; type: functional; conditions: time 7 day
NCI-H838 [28] = experiment: Antiproliferative activity against SMARCA4-deficient human NCI-H838 cells assessed as cell growth inhibition measured after 7 days by WST-8 assay; type: functional; conditions: NCI-H838, 168 h, time 7 day
NCI-H1944 [29] = experiment: Antiproliferative activity against SMARCA4-deficient human NCI-H1944 cells assessed as cell growth inhibition measured after 7 days by WST-8 assay; type: functional; conditions: NCI-H1944, 168 h, time 7 day
NCI-H1944 [30] = experiment: Antiproliferative activity against SMARCA4-deficient human NCI-H1944 cells assessed as cell growth inhibition by measuring maximal efficacy measured after 7 days by WST-8 assay relative to control; type: functional; conditions: time 7 day
[31] = molecular target: T2, von Hippel-Lindau disease tumor suppressor/SWI/SNF-related matrix-associated actin-dependent regulator of chromatin subfamily A member 4; experiment: PROTAC activity at VHL/C-terminal HiBiT fused SMARCA4 in human HeLa cells assessed as induction of SMARCA4 degradation by measuring maximal efficacy incubated for 24 hrs by Nano-Glo HiBiT analysis relative to control; type: cell-based
Target sequence in this assay (P40337 whole entry, looked up, the tested form may be a part): as the sequence (P40337 whole entry, looked up) above
Target sequence in this assay (P51532 whole entry, looked up, the tested form may be a part): as the sequence (P51532 whole entry, looked up, the tested form may be a part) above

NCI-H1792 [32] = experiment: Antiproliferative activity against human NCI-H1792 cells expressing wild-type SMARCA2 assessed as cell growth inhibition by measuring maximal efficacy measured after 7 days by WST-8 assay relative to control; type: functional; conditions: time 7 day
A549 [33] = experiment: Antiproliferative activity against SMARCA4-deficient human A549 cells assessed as cell growth inhibition by measuring maximal efficacy measured after 7 days by WST-8 assay relative to control; type: functional; conditions: time 7 day
SK-MEL-28 [34] = experiment: Antiproliferative activity against human SK-MEL-28 cells expressing wild-type SMARCA2 assessed as cell growth inhibition measured after 7 days by WST-8 assay; type: functional; conditions: SK-MEL-28, 168 h, time 7 day
[35] = molecular target: T2, von Hippel-Lindau disease tumor suppressor/SWI/SNF-related matrix-associated actin-dependent regulator of chromatin subfamily A member 4; experiment: PROTAC activity at VHL/C-terminal HiBiT fused SMARCA4 in human HeLa cells assessed as induction of SMARCA4 degradation incubated for 6 to 48 hrs by Nano-Glo HiBiT analysis; type: cell-based; conditions: dose lower 1e-05 µM, dose upper 1.0 µM, time 6-48 hrs
Target sequence in this assay (P40337 whole entry, looked up, the tested form may be a part): as the sequence (P40337 whole entry, looked up) above
Target sequence in this assay (P51532 whole entry, looked up, the tested form may be a part): as the sequence (P51532 whole entry, looked up, the tested form may be a part) above

[36] = molecular target: T1, von Hippel-Lindau disease tumor suppressor/SWI/SNF-related matrix-associated actin-dependent regulator of chromatin subfamily A member 2; experiment: PROTAC activity at VHL/C-terminal HiBiT fused SMARCA2 in human HeLa cells assessed as induction of SMARCA2 degradation incubated for 24 hrs by Nano-Glo HiBiT analysis; type: cell-based
[37] = molecular target: SWI/SNF-related matrix-associated actin-dependent regulator of chromatin subfamily A member 4 (Homo sapiens, UniProt P51532); experiment: Binding affinity to SMARCA4 (unknown origin)

GI50 (NCI-H647 [2]) | Emax [3] | GI50 (NCI-H1975 [8]) | DC50 [9] | GI50 (A549 [11]) | GI50 (NCI-H1792 [14]) | GI50 (NCI-H1299 [19]) | GI50 (NCI-H1793 [20]) | GI50 (NCI-H1693 [21]) | GI50 (SK-MEL-5 [26]) | SMILES | Imax (NCI-H647 [4]) | Imax (NCI-H1793 [7]) | Imax (SK-MEL-28 [12]) | Imax [13] | Imax (NCI-H1975 [15]) | Imax (SK-MEL-5 [17]) | GI50 [18] | Imax (NCI-H1299 [22]) | Imax (NCI-H1693 [23]) | Imax (NCI-H838 [27]) | further results
165 nM | 94% | 65 nM | 9 nM | 30 nM | 135 nM | 116 nM | 7.3 nM | 2.8 nM | 4.9 nM | Cc1ncsc1-c1ccc([C@H](CC[C@H](C)CCN2CCC(c3ccc4c(c3)n(C3CCCC3)c3nc(=O)c5c(Br)cccc5n43)CC2)NC(=O)[C@@H]2C[C@@H](O)CN2C(=O)[C@@H](NC(=O)C2(F)CC2)C(C)(C)C)cc1 | 80% | 68% | 50% | 90% | 63% | 96% | 2.8 nM | 74% | 86% | 82% | Emax [1]: 81%; Emax [5]: 67%; Activity [6]: Tde; DC50 [10]: 1 nM; Activity [16]: Tde; DC50 [24]: 32 nM; Activity [25]: Dose-Dependent Effect; GI50 (NCI-H838 [28]): 67 nM; GI50 (NCI-H1944 [29]): 13 nM; Imax (NCI-H1944 [30]): 82%; Emax [31]: 92%; Imax (NCI-H1792 [32]): 65%; Imax (A549 [33]): 56%; GI50 (SK-MEL-28 [34]): > 10000 nM; Activity [35]: Dose-Dependent Effect
76 nM | 93% | 38 nM | 8 nM | 16 nM | 60 nM | 100 nM | 5 nM | 3.3 nM | 2.5 nM | Cc1ncsc1-c1ccc([C@H](C)NC(=O)[C@@H]2C[C@@H](O)CN2C(=O)[C@@H](NC(=O)CCCCCCCCCn2cc(-c3cc(-c4ccccc4O)nnc3N)cn2)C(C)(C)C)cc1 | 77% | 72% | 90% | 82% | 63% | 95% | 2.5 nM | 81% | 81% | 91% | DC50 [36]: 2 nM; GI50 (NCI-H838 [28]): 48 nM; GI50 (NCI-H1944 [29]): 4.8 nM; Imax (NCI-H1944 [30]): 87%; Emax [31]: 94%; Imax (NCI-H1792 [32]): 86%; Imax (A549 [33]): 53%; GI50 (SK-MEL-28 [34]): 32 nM
 |  |  |  |  |  |  |  |  |  | CN1CCN(/C=C2\CCn3c2nc(=O)c2c(Cl)cccc23)CC1 |  |  |  |  |  |  |  |  |  |  | Kd [37]: 417 nM
